In assay [1] the test system is clinical P. aeruginosa isolates. The assay is described as follows: microbe, parasite or virus in culture. The conditions noted are these: for MIC: Pseudomonas aeruginosa, 18 h. As to the method: The bacterial strains, primers and plasmids used in this study are listed in S5 Table. […] Bacteria were cultured in LB medium or cation-adjusted Muller-Hinton broth (CA-MHB) at 37 °C with agitation at 220 rpm. All the antibiotics and chemical compounds used in this study were purchased from Sigma-Aldrich.
(§1) The MIC tests were performed in triplicate using broth microdilution in accordance with Clinical and Laboratory Standards Institute (CLSI) recommendations (http://iacld.ir/DL/public/CLSI-2018-M100-S28.pdf). Briefly, drugs were two-fold diluted in MHB and mixed with an equal volume of bacterial suspensions containing approximately 1 × 10^6 CFU/mL in 96-well microliter plate. After 18 h incubation at 37 °C, the MIC values were defined as the lowest concentrations of antibiotics with no visible growth of bacteria. […] Otherwise, 1/4 MIC of the peptide was used in the combination. […] If needed, membrane compounds PG, PE, PC, CL or LPS, or membrane stabilizers MgCl2 or CaCl2, or efflux pumps inhibitor PAβN were added to the broth medium to clarify the effect of other substances on the synergy between peptide and antibiotics. All the tests were performed in triplicate.

The test system of assay [2] is P. aeruginosa PAO1. Put plainly: microbe, parasite or virus in culture. The note with it: for MIC: Pseudomonas aeruginosa, PAO1, 18 h. As to the method: as §1
The fractional inhibitory concentration (FIC) indices were calculated using the previously described formula FICI = FICa + FICb = MICac/MICa + MICbc/MICb. The FICI was interpreted according to EUCAST [65] as follows: synergistic, FICI≤0.5; additive, 0.5<FICI≤1; indifferent, 1<FICI<2; antagonistic, FICI ≥2. For the FICI calculations, twice the highest concentration tested was used in the cases where the MIC was not reached.

[3] abbreviates: read-out: Antibiotic sensibility (MIC) of clinical P. aeruginosa isolate AUMC-Pa-1, strain AUMC-Pa-1, antibiotic alone.
Setting [4] is: read-out: Antibiotic sensibility (MIC) of clinical P. aeruginosa isolate AUMC-Pa-2, strain AUMC-Pa-2, antibiotic alone.
Where [5] appears, read: read-out: Antibiotic sensibility (MIC) of clinical P. aeruginosa isolate AUMC-Pa-3, strain AUMC-Pa-3, antibiotic alone.
Setting [6] is: read-out: Antibiotic sensibility (MIC) of clinical P. aeruginosa isolate AUMC-Pa-4, strain AUMC-Pa-4, antibiotic alone.
The mark [7] stands for this setting: read-out: Antibiotic sensibility (MIC) of clinical P. aeruginosa isolate AUMC-Pa-5, strain AUMC-Pa-5, antibiotic alone.
Where [8] appears, read: read-out: Antibiotic sensibility (MIC) of clinical P. aeruginosa isolate AUMC-Pa-6, strain AUMC-Pa-6, antibiotic alone.
The mark [9] stands for this setting: read-out: Antibiotic sensibility (MIC) of clinical P. aeruginosa isolate HM-214, strain HM-214, antibiotic alone.
The mark [10] stands for this setting: read-out: Antibiotic sensibility (MIC) of clinical P. aeruginosa isolate NR-31040, strain NR-31040, antibiotic alone.
[11] abbreviates: read-out: Antibiotic sensibility (MIC) of clinical P. aeruginosa isolate NR-31041, strain NR-31041, antibiotic alone.
The mark [12] stands for this setting: S3 Table, PAO1, antibiotic + 2 μM D-11.
[13] abbreviates: S3 Table, PAO1, antibiotic + 4 μM D-11.
Where [14] appears, read: S3 Table, antibiotic alone, PAO1.
Where [15] appears, read: read-out: MICa: the MIC of antibiotics, S3 Table, antibiotic alone, PAO1.
[16] abbreviates: PAO1, peptide + azithromycin, twice the highest concentration used where MIC not reached.
Where [17] appears, read: peptide alone, PAO1, broth microdilution in MHB, 18 h, 37 °C, triplicate.

Several values for one entry are separate records, joined by “and”; a condition that tells them apart may be missing. Identical values can stand only once. Like-named read-outs stand apart in the source and are kept apart here. Positions of bridges follow the written chain, without caps; N, C: chain ends. Non-standard residues stand in square brackets, D forms with d. Residues, ends and D or L forms follow the SMILES beside them. No end group written: not given here. *: point of attachment. Ileψ(thiazoline)Cys = CC[C@H](C)[C@H](N)C1=N[C@H](C(=O)*)CS1; dOrn = NCCC[C@@H](N)C(=O)O

Take `NCC[C@H](O)C(=O)N[C@@H]1C[C@H](N)[C@@H](O[C@H]2O[C@H](CN)[C@@H](O)[C@H](O)[C@H]2O)[C@H](O)[C@H]1O[C@H]1O[C@H](CO)[C@@H](O)[C@H](N)[C@H]1O` [Amikacin]: the MIC in assay [1] (setting [3]) came out at 1 µM; in assay [1] (setting [4]) it was 0.25 µM; in assay [1] (setting [5]), 0.0625 µM; in assay [1] (setting [6]) it was 1 µM; in assay [1] (setting [7]) it was 1 µM; in assay [1] (setting [8]) it was 2 µM. Also, the results for the MIC in assay [1] (setting [9]), in assay [1] (setting [10]) and in assay [1] (setting [11]) were 1 µM, 4 µM and 2 µM, respectively. The FICI was 1.063 in assay [2] (setting [12]) and 2.125 in assay [2] (setting [13]). Moreover, the “MICac: the MIC for the antibiotic in the combination” value (“MICac: the MIC for the antibiotic” below) in assay [2] (S3 Table, PAO1, with 2 μM D-11) was 1/1 μM; in assay [2] (S3 Table, PAO1, with 4 μM D-11), 2 µM. Moreover, the “MICa: the MIC of antibiotics” value in assay [2] (setting [14]) was 1/1 μM and 1 μM.
Turning to `CC1(C)S[C@@H]2[C@H](NC(=O)[C@H](N)c3ccc(O)cc3)C(=O)N2[C@H]1C(=O)O` [Amoxicin, Amoxicillin], the MIC in assay [1] (setting [3]), in assay [1] (setting [4]), in assay [1] (setting [5]), in assay [1] (setting [6]), in assay [1] (setting [7]) and in assay [1] (setting [8]) was more than 128 µM in each case. Besides, the MIC in assay [1] (setting [9]), in assay [1] (setting [10]), in assay [1] (setting [11]) and in assay [2] (setting [15]) was more than 128 µM throughout. In assay [2] (setting [13]), the FICI turned out to be 1.125. Moreover, the “MICac: the MIC for the antibiotic” value in assay [2] (S3 Table, PAO1, with 2 μM D-11) is given as >128/>128 μM; in assay [2] (S3 Table, PAO1, with 4 μM D-11), >128/>128 μM.
As to `CC1(C)S[C@@H]2[C@H](NC(=O)[C@H](N)c3ccccc3)C(=O)N2[C@H]1C(=O)O` [Ampicillin], the MIC in assay [1] (setting [3]), in assay [1] (setting [4]), in assay [1] (setting [5]), in assay [1] (setting [6]), in assay [1] (setting [7]) and in assay [1] (setting [8]) was more than 128 µM throughout. In addition, the MIC in assay [1] (setting [9]), in assay [1] (setting [10]), in assay [1] (setting [11]) and in assay [2] (setting [15]) was more than 128 µM throughout. For the same compound, the FICI in assay [2] (setting [13]) worked out at 1.125. The “MICac: the MIC for the antibiotic” value in assay [2] (S3 Table, PAO1, with 2 μM D-11) is >128/>128 μM; in assay [2] (S3 Table, PAO1, with 4 μM D-11), >128/>128 μM.
`CC[C@H](C)[C@H](N)C1=N[C@H](C(=O)N[C@@H](CC(C)C)C(=O)N[C@H](CCC(=O)O)C(=O)N[C@H](C(=O)N[C@H]2CCCCNC(=O)[C@H](CC(N)=O)NC(=O)[C@@H](CC(=O)O)NC(=O)[C@H](Cc3cnc[nH]3)NC(=O)[C@@H](Cc3ccccc3)NC(=O)[C@H]([C@@H](C)CC)NC(=O)[C@@H](CCCN)NC2=O)[C@@H](C)CC)CS1` [Bacitracin] ({Ileψ(thiazoline)Cys}-L[dE]IK[dOrn]I[dF]H[dD]N; lactam 4-C (inferred); N-terminus assumed): the “Antibiotic sensibility (MIC) of clinical P. aeruginosa isolate AUMC-Pa-1” value in assay [1] (strain AUMC-Pa-1, antibiotic alone) was more than 128 µM. The “Antibiotic sensibility (MIC) of clinical P. aeruginosa isolate AUMC-Pa-2” value in assay [1] (strain AUMC-Pa-2, antibiotic alone) was more than 128 µM. Further, the “Antibiotic sensibility (MIC) of clinical P. aeruginosa isolate AUMC-Pa-3” value in assay [1] (strain AUMC-Pa-3, antibiotic alone) was more than 128 µM. Also, the “Antibiotic sensibility (MIC) of clinical P. aeruginosa isolate AUMC-Pa-4” value in assay [1] (strain AUMC-Pa-4, antibiotic alone) was more than 128 µM. For the same compound, in assay [1] (strain AUMC-Pa-5, antibiotic alone), the “Antibiotic sensibility (MIC) of clinical P. aeruginosa isolate AUMC-Pa-5” value was more than 128 µM. The “Antibiotic sensibility (MIC) of clinical P. aeruginosa isolate AUMC-Pa-6” value in assay [1] (strain AUMC-Pa-6, antibiotic alone) is more than 128 µM. The “Antibiotic sensibility (MIC) of clinical P. aeruginosa isolate HM-214” value in assay [1] (strain HM-214, antibiotic alone) was more than 128 µM. Further, the “Antibiotic sensibility (MIC) of clinical P. aeruginosa isolate NR-31040” value in assay [1] (strain NR-31040, antibiotic alone) is more than 128 µM. Also, the “Antibiotic sensibility (MIC) of clinical P. aeruginosa isolate NR-31041” value in assay [1] (strain NR-31041, antibiotic alone) is more than 128 µM. Moreover, the FICI was found to be 1.063 in assay [2] (setting [12]) and 1.125 in assay [2] (setting [13]). Moreover, the “MICac: the MIC for the antibiotic” value in assay [2] (S3 Table, PAO1, with 2 μM D-11) is reported as >128/>128 μM; in assay [2] (S3 Table, PAO1, with 4 μM D-11), >128/>128 μM. The “MICa: the MIC of antibiotics” value in assay [2] (setting [14]) is >128/>128 μM.
With `CO/N=C(\C(=O)N[C@@H]1C(=O)N2C(C(=O)[O-])=C(C[N+]3(C)CCCC3)CS[C@H]12)c1csc(N)n1` [Cefepime], the MIC in assay [1] (setting [3]) is 8 µM; in assay [1] (setting [4]), 0.5 µM; in assay [1] (setting [5]), 2 µM; in assay [1] (setting [6]), 2 µM; in assay [1] (setting [7]), 4 µM; in assay [1] (setting [8]), 4 µM. Further, the MIC worked out at 128 µM in assay [1] (setting [9]), 4 µM in assay [1] (setting [10]) and 16 µM in assay [1] (setting [11]). Moreover, the FICI in assay [2] (setting [12]) is 0.563; in assay [2] (setting [13]), 0.625. Besides, the “MICac: the MIC for the antibiotic” value in assay [2] (S3 Table, PAO1, with 2 μM D-11) worked out at 1 µM; in assay [2] (S3 Table, PAO1, with 4 μM D-11) it was 1 µM. Also, the “MICa: the MIC of antibiotics” value in assay [2] (setting [14]) was 2 µM.
Consider `CCCCc1ccc(C(=O)O)nc1` [Fusaric Acid], for which the MIC in assay [1] (read-out: Antibiotic sensibility (MIC) of clinical P. aeruginosa isolate AUMC-Pa-1), in assay [1] (read-out: Antibiotic sensibility (MIC) of clinical P. aeruginosa isolate AUMC-Pa-2), in assay [1] (read-out: Antibiotic sensibility (MIC) of clinical P. aeruginosa isolate AUMC-Pa-3), in assay [1] (read-out: Antibiotic sensibility (MIC) of clinical P. aeruginosa isolate AUMC-Pa-4), in assay [1] (read-out: Antibiotic sensibility (MIC) of clinical P. aeruginosa isolate AUMC-Pa-5) and in assay [1] (read-out: Antibiotic sensibility (MIC) of clinical P. aeruginosa isolate AUMC-Pa-6) was more than 128 µM throughout. In addition, the MIC in assay [1] (read-out: Antibiotic sensibility (MIC) of clinical P. aeruginosa isolate HM-214), in assay [1] (read-out: Antibiotic sensibility (MIC) of clinical P. aeruginosa isolate NR-31040), in assay [1] (read-out: Antibiotic sensibility (MIC) of clinical P. aeruginosa isolate NR-31041) and in assay [2] (read-out: MICa: the MIC of antibiotics) was more than 128 µM in each case. For the same compound, the FICI in assay [2] (setting [12]) turned out to be 1.063; in assay [2] (setting [13]) it was 1.125. In addition, the “MICac: the MIC for the antibiotic” value was >128/>128 μM in assay [2] (S3 Table, PAO1, with 2 μM D-11) and >128/>128 μM in assay [2] (S3 Table, PAO1, with 4 μM D-11).
For RLLFRKIRRLKR [EC5], the FICI in assay [2] (PAO1, peptide + Azithromycin, higher peptide concentration line) is less than 0.125; in assay [2] (PAO1, peptide + Azithromycin, lower peptide concentration line), less than 0.281; in assay [2] (PAO1, peptide + Clarithromycin, higher peptide concentration line), less than 0.313; in assay [2] (PAO1, peptide + Clarithromycin, lower peptide concentration line), less than 0.281; in assay [2] (PAO1, peptide + Erythromycin, higher peptide concentration line), less than 0.313; in assay [2] (PAO1, peptide + Erythromycin, lower peptide concentration line), less than 0.281. Moreover, the FICI in assay [2] (PAO1, peptide + Spiramycin, higher peptide concentration line) was 1.063; in assay [2] (PAO1, peptide + Spiramycin, lower peptide concentration line) it was 1.031; in assay [2] (PAO1, peptide + Telithromycin, higher peptide concentration line) it was less than 0.313; in assay [2] (PAO1, peptide + Telithromycin, lower peptide concentration line) it was less than 0.531; in assay [2] (setting [16]), 0.188. Besides, the “MICb: the MIC of the peptide” value was more than 128 µM in assay [2] (S1 Table, peptide alone, PAO1) and more than 32 µM in assay [2] (setting [17]). In addition, the “MIC of the peptide” value in assay [2] (peptide alone, PAO1) is not below 32 µM.
Consider RRLFRRILRWL-NH2 [RW-BP100], for which the FICI in assay [2] (setting [16]) stood at 1.250. Moreover, the “MICb: the MIC of the peptide” value in assay [2] (setting [17]) came out at 8 µM.
Taken in the same sequence, the figures for “VDKGSYLPRPTPPRPIYNRN-NH2 [Pyrrhocoricin]” were 1.125 and more than 32 µM.
Taken in the same sequence, the figures for VDKPPYLPRPRPPRRIYNR-NH2 [Oncocin] were 1.125 and more than 32 µM.

The values above are taken from publication PMC8445441, “Elucidating the mechanism by which synthetic helper peptides sensitize Pseudomonas aeruginosa to multiple antibiotics” (PLoS Pathogens, 2021).
